How the values were obtained:
MIA PaCa-2 cells = experiment: Growth inhibition activity on KRAS-G12C mutant cell line (CellTiter-Glo 3D); type: cell-based, human; conditions: Homo sapiens, MIA PaCa-2, 72 h, MIA PaCa-2, 3-day culture with compound; Table 3-1
In short: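 IC50 (nM) derived from inhibition of luminescence (CellTiter-Glo 3D) relative to compound-free wells. Cells were seeded in U-bottom plates, grown 1 day, then exposed to compound for 3 days at 37 °C with 0.2% final DMSO.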

[1] = biological target: T1, interaction between GMPPNP-bound recombinant K-Ras4B G12C mutant protein and cRAF RAS-binding domain (cRAF-RBD) (Homo sapiens, UniProt P01116, G12C); experiment: Inhibitory activity on interaction between KRAS G12C and cRAF (Alpha technology); conditions: GMPPNP-bound KRAS G12C incubated with compound 25° C. 1 hour; Table 2-1; read-out: IC50
T1 construct: His-tag (N)
T1 sequence (P01116 with tags, fused parts or gaps isoform P01116-2 G12C): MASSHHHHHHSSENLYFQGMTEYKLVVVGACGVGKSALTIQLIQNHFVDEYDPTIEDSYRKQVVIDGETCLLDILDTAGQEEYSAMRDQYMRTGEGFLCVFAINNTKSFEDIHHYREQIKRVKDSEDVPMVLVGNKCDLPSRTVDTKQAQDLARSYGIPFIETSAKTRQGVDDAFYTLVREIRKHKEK
In short: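 Alpha signal measured 1.5 h after adding cRAF-RBD (aa 50-132) and detection reagents to GMPPNP-bound KRAS G12C (aa 1-169) pretreated 1 h at 25° C with compound (pH 7.5 buffer). 0% inhibition = DMSO, 100% = GDP-loaded KRAS; IC50 by curve fit.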

Compound	IC50 (MIA PaCa-2 cells) [µM]	IC50 [1] [µM]
COCc1nc2c3c(c(C(F)(F)F)cc2n1C)-c1cccn2c(C(=O)c4cc(F)c(NC(=O)/C=C/CN[C@H]5CCOC5)c(F)c4)cc(c12)COC3 [Example 209, (S,E)-N-(2,6-difluoro-4-(10-(methoxymethyl)-9-methyl-7-(trifluoromethyl)-9,12-dihydro-14H-imidazo[4″,5″:3′,4′]benzo[1′,2′:6,7]oxocino[5,4,3-hi]indolizine-2-carbonyl)phenyl)-4-((tetrahydrofuran-3-yl)amino)but-2-enamide]	0.0187	0.0469
COc1cc(N2CCCC2=O)cc2c1-c1cccn3c(C(=O)c4cc(F)c(NC(=O)/C=C/CNC5(C)CC5)c(F)c4)cc(c13)CCO2 [Example 210]	0.0603	0.0381
C[C@@H](O)[C@@H]1CCCN1C/C=C/C(=O)Nc1c(F)cc(C(=O)c2cc3c4c(cccn24)-c2c(C(F)(F)F)cc4c(ncn4C)c2N(C)CC3)cc1F [Example 211, (E)-N-(4-(9,12-dimethyl-7-(trifluoromethyl)-9,12,13,14-tetrahydro-imidazo[4″,5″:5′,6′]benzo-[1′,2′:2,3]azocino[4,5,6-hi]indolizine-2-carbonyl)-2,6-difluorophenyl)-4-((S)-2-((R)-1-hydroxy-ethyl)pyrrolidin-1-yl)but-2-enamide]	0.0109	0.0519
Cn1cnc2c3c(c(C(F)(F)F)cc21)-c1cccn2c(C(=O)c4cc(F)c(NC(=O)/C=C/CN5C6COCC5C6)c(F)c4)cc(c12)CCO3 [Example 212, (E)-4-(3-oxa-6-azabicyclo-[3.1.1]heptan-6-yl)-N-(2,6-difluoro-4-(9-meth-yl-7-(trifluoromethyl)-13,14-dihydro-9H-imidazo-[4″,5″:5′,6′]benzo[1′,2′: 2,3]oxocino[4,5,6-hi]-indolizine-2-carbonyl)-phenyl)but-2-enamide]	0.00416	0.0163
Cn1cnc2c3c(c(C(F)(F)F)cc21)-c1cccn2c(C(=O)c4cc(F)c(NC(=O)/C=C/CN5C[C@H]6COC[C@H]6C5)c(F)c4)cc(c12)CCO3 [Example 213, (E)-N-(2,6-difluoro-4-(9-methyl-7-(trifluorometh-yl)-13,14-dihydro-9H-imidazo[4″,5″:5′,6′]benzo-[1′,2′:2,3]oxocino[4,5,6-hi]indolizine-2-carbonyl)-phenyl)-4-((3aR,6aS)-tetrahydro-1H-furo[3,4-c]pyrrol-5(3H)-yl)but-2-enamide]	0.0253	0.0621
C[C@H](O)[C@@H]1CCCN1C/C=C/C(=O)Nc1c(F)cc(C(=O)c2cc3c4c(cccn24)-c2c(C(F)(F)F)cc4c(ncn4C)c2N(C)CC3)cc1F [Example 219, (E)-N-(4-(9,12-dimethyl-7-(trifluoromethyl)-9,12,13,14-tetrahydro-imidazo[4″,5″:5′,6′]benzo-[1′,2′:2,3]azocino[4,5,6-hi]indolizine-2-carbonyl)-2,6-difluorophenyl)-4-((S)-2-((S)-1-hydroxy-ethyl)pyrrolidin-1-yl)but-2-enamide]	0.0126	0.0385
Cn1cnc2c3c(c(C(F)(F)F)cc21)-c1cccn2c(C(=O)c4cc(F)c(NC(=O)/C=C/CN5C6CCCC5COC6)c(F)c4)cc(c12)CCO3 [Example 221, (E)-4-(3-oxa-9-azabicyclo-[3.3.1]nonan-9-yl)-N-(2,6-difluoro-4-(9-methyl-7-(trifluoromethyl)-13,14-dihydro-9H-imidazo[4″,5″: 5′,6′]benzo[1′,2′:2,3]oxo-cino[4,5,6-hi]indolizine-2-carbonyl)phenyl)but-2-enamide]	0.0209	0.0392
Cn1cnc2c3c(c(C(F)(F)F)cc21)-c1cccn2c(C(=O)c4cc(F)c(NC(=O)/C=C/CN5CCCC[C@H]5CO)c(F)c4)cc(c12)CCO3 [Example 222, (S,E)-N-(2,6-difluoro-4-(9-methyl-7-(trifluoro-methyl)-13,14-dihydro-9H-imidazo[4″,5″:5′,6′]-benzo[1′,2′:2,3]oxocino-[4,5,6-hi]indolizine-2-carbonyl)phenyl)-4-(2-(hydroxymethyl)piperidin-1-yl)but-2-enamide]	1.94	0.0758
COCc1nc2c3c(c(C(F)F)cc2n1C)-c1cccn2c(C(=O)c4cc(F)c(NC(=O)/C=C/CNC5(C)COC5)c(F)c4)cc(c12)CCN3C [Example 224, (E)-N-(4-(7-(difluoromethyl)-10-(methoxymethyl)-9,12-dimethyl-9,12,13,14-tetrahydroimidazo[4″,5″:5′,6′]benzo[1′,2′:2,3]azocino[4,5,6-hi]indolizine-2-carbonyl)-2,6-difluorophenyl)-4-((3-methyloxetan-3-yl)amino)but-2-enamide]	0.0178	0.0282
CN1CCc2cc(C(=O)c3cc(F)c(NC(=O)/C=C/CN4CCCC4)c(F)c3)n3cccc(c23)-c2c(C(F)(F)F)cc3c(ncn3C)c21 [Example 226, (E)-N-(4-(9,12-dimethyl-7-(trifluoromethyl)-9,12,13,14-tetrahydro-imidazo[4″,5″:5′,6′]benzo-[1′,2′:2,3]azocino[4,5,6-hi]indolizine-2-carbonyl)-2,6-difluorophenyl)-4-(pyrrolidin-1-yl)but-2-enamide]	0.0135	0.0633
Cn1cnc2c3c(c(C(F)(F)F)cc21)-c1cccn2c(C(=O)c4cc(F)c(NC(=O)/C=C/CN5CC6COC(C6)C5)c(F)c4)cc(c12)CCO3 (stereo not drawn) [Example 228, (E)-4-(6-oxa-3-azabicyclo-[3.2.1]octan-3-yl)-N-(2,6-difluoro-4-(9-methyl-7-(trifluoromethyl)-13,14-dihydro-9H-imidazo-[4″,5″:5′,6′]benzo[1′,2′: 2,3]oxocino[4,5,6-hi]-indolizine-2-carbonyl)-phenyl)but-2-enamide]	0.0358	0.0325
Cn1cnc2c3c(c(C(F)(F)F)cc21)-c1cccn2c(C(=O)c4cc(F)c(NC(=O)/C=C/CN5CC6CC5CCO6)c(F)c4)cc(c12)CCO3 (stereo not drawn) [Example 229, (E)-4-(2-oxa-6-azabicyclo-[3.2.1]octan-6-yl)-N-(2,6-difluoro-4-(9-methyl-7-(trifluoromethyl)-13,14-dihydro-9H-imidazo-[4″,5″:5′,6′]benzo[1′,2′: 2,3]oxocino[4,5,6-hi]-indolizine-2-carbonyl)-phenyl)but-2-enamide]	0.0113	0.0127

The remaining lines, values ahead:

IC50 (MIA PaCa-2 cells) [µM]	IC50 [1] [µM]	Compound
0.0011	0.0115	CN1CCc2cc(C(=O)c3cc(F)c(NC(=O)/C=C/CNC4(C)CC4)c(F)c3)n3cccc(c23)-c2c(C(F)(F)F)cc3c(ncn3C)c21 [Example 214, (E)-N-(4-(9.12-dimethyl-7-(trifluoromethyl)-9,12,13,14-tetrahydro-imidazo[4″,5″:5′,6′]benzo-[1′,2′:2,3]azocino[4,5,6-hi]indolizine-2-carbonyl)-2,6-difluorophenyl)-4-((1-methylcyclopropyl)amino)-but-2-enamide]
0.0034	0.0183	COCCn1cnc2c3c(c(C(F)(F)F)cc21)-c1cccn2c(C(=O)c4cc(F)c(NC(=O)C=CCNC5(C)CC5)c(F)c4)cc(c12)CCN3C [Example 215, (E)-N-(2,6-difluoro-4-(9-(2-methoxyethyl)-12-methyl-7-(trifluoromethyl)-9,12,13,14-tetrahydroimidazo[4″,5″:5′,6′]benzo[1′,2′:2,3]azocino[4,5,6-hi]indolizine-2-carbonyl)phenyl)-4-((1-methylcyclopropyl)amino)but-2-enamide]
0.00622	0.0197	Cc1nnc2c3c(c(C(F)(F)F)cn12)-c1cccn2c(C(=O)c4cc(F)c(NC(=O)/C=C/CN[C@H]5CCOC5)c(F)c4)cc(c12)CCN3C [Example 217, (S,E)-N-(4-(10,13-dimethyl-7-(trifluoromethyl)-14,15-dihydro-13H-[1,2,4]triazolo[4″,3″:1′,2′]pyrido[3′,4′:2,3]azocino[4,5,6-hi]indolizine-2-carbonyl)-2,6-difluorophenyl)-4-((tetrahydrofuran-3-yl)amino)but-2-enamide]
0.00652	0.0244	Cn1cnc2c3c(c(C(F)(F)F)cc21)-c1cccn2c(C(=O)c4cc(F)c(NC(=O)/C=C/CN5CC6CCC5CO6)c(F)c4)cc(c12)CCO3 (stereo not drawn) [Example 220, (E)-4-(2-oxa-5-aza-bicyclo[2.2.2]octan-5-yl)-N-(2,6-difluoro-4-(9-methyl-7-(trifluorometh-yl)-13,14-dihydro-9H-imidazo[4″,5″:5′,6′]benzo-[1′,2′:2,3]oxocino[4,5,6-hi]indolizine-2-carbonyl)-phenyl)but-2-enamide]
0.00718	0.0101	COc1cc2c(nc(C)n2C)c2c1-c1cccn3c(C(=O)c4cc(F)c(NC(=O)/C=C/CNC5(C)CC5)c(F)c4)cc(c13)CCS2 [Example 225, (E)-N-(2,6-difluoro-4-(7-methoxy-9,10-dimethyl-13,14-dihydro-9H-imidazo[4″,5″:5′,6′]benzo-[1′,2′:2,3]thiocino[4,5,6-hi]indolizine-2-carbonyl)-phenyl)-4-((1-methyl-cyclopropyl)amino)but-2-enamide]
0.0102	0.034	CN1CCc2cc(C(=O)c3cc(F)c(NC(=O)/C=C/CN4CCC[C@H]4CO)c(F)c3)n3cccc(c23)-c2c(C(F)(F)F)cc3c(ncn3C)c21 [Example 227, (S,E)-N-(4-(9,12-dimeth-yl-7-(trifluoromethyl)-9,12,13,14-tetrahydro-imidazo[4″,5″:5′,6′]benzo-[1′,2′:2,3]azocino[4,5,6-hi]indolizine-2-carbonyl)-2,6-difluorophenyl)-4-(2-(hydroxymethyl)pyrrol-idin-1-yl)but-2-enamide]
